In US9796709B2, “5-hydroxy-4-(trifluoromethyl)pyrazolopyridine derivative” (Daiichi Sankyo Company, Limited, priority 2013, dated 2017) one finds change in vivo and EC50 data, which are given here for 17 compounds.

One assay deals with cynomolgus monkey. In words: Drug efficacy test in cynomolgus monkeys (plasma HDL cholesterol). The assay is classed as in vivo. To be noted: Macaca fascicularis, oral, single dose of 10 mg/kg, from AUC before administration and 24 hours after administration, read-out: Rate of increase in HDL level after administration of single dose. The method, then:
Each test drug was dissolved in a propylene glycol (Sigma-Aldrich Corp.)-Tween 80 (Sigma-Aldrich Corp.) mixed solution [4/1 (v/v)] or a 0.5% (w/v) methylcellulose aqueous solution, and the solution was orally administered to a cynomolgus monkey for 1 or 7 days. At day 1 or 7 of the administration period, blood was collected before administration and after administration, and plasma was obtained. The content of cholesterol in the plasma was measured using a commercially available assay kit (Cholesterol-E Wako, Wako Pure Chemical Industries, Ltd.). The lipoprotein profile was analyzed by HPLC (column: LipopropakXL, manufactured by Tosoh Corp.). The contents of HDL cholesterol and non-HDL cholesterol were calculated according to the following calculation expression: Content of HDL cholesterol=Content of cholesterol in the plasma×(Peak area of HDL cholesterol/Total sum of peaks) Content of non-HDL cholesterol=Content of cholesterol in the plasma×(Peak area of non-HDL cholesterol/Total sum of peaks)

Another assay concerns the target T1, LCAT (Homo sapiens, UniProt P04180).
T1 construct: The obtained fraction was dialyzed against phosphate-buffered saline (pH 7.4) and used as an enzyme source and an acceptor for LCAT; from tissue; host or cells: HDL3 fraction (1.125 < specific gravity < 1.210 g/mL) of plasma from a healthy person
T1 sequence (P04180 25-440): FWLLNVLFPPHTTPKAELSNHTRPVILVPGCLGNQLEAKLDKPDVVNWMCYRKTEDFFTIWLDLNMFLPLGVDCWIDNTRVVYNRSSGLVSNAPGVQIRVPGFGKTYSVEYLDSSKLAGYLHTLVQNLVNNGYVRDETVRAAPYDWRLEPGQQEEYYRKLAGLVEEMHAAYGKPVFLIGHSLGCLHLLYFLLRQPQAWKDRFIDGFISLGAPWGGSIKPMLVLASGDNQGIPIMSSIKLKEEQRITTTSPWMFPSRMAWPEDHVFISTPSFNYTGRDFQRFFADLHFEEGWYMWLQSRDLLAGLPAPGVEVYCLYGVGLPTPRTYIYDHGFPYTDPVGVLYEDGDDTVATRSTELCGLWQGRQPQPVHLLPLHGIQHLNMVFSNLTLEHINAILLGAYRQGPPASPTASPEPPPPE
In words: LCAT activity measurement (in vitro), [14C]cholesterol esterification with HDL3 fraction. In kind it is biochemical. The note with it: HDL3 fraction from plasma of a healthy person as enzyme source and acceptor; 37° C., approximately 16 hours; relative to sample without test drug; read-out: EC50 of LCAT activation. The protocol: A fraction composed of HDL3 (1.125 <specific gravity <1.210 g/mL) was obtained from the plasma of a healthy person by density gradient centrifugation. The obtained fraction was dialyzed against phosphate-buffered saline (pH 7.4) and used as an enzyme source and an acceptor for LCAT. Each test drug was prepared by dissolution in dimethyl sulfoxide. [^14C]Cholesterol containing DTNB (Ellman's reagent, final concentration: 0.5 mM), mercaptoethanol (final concentration: 12.5 mM), and 0.6% bovine serum albumin was added to phosphate-buffered saline (pH 7.4) containing 1 mg/mL HDL3, and the test drug was further added thereto at varying concentrations to adjust the whole amount to 80 μL. This mixture was incubated at 37° C. for approximately 16 hours. Then, a mixed solution of hexane and isopropanol (mixing ratio=3:2) was added thereto to stop the reaction. After stirring, the hexane layer was collected, and this layer was evaporated to dryness. A chloroform solution (concentration: 10 mg/mL) was added thereto, and the mixture was spotted onto a thin-layer silica gel plate and developed using a mixed solution of hexane, diethyl ether, and ethyl acetate (mixing ratio=85:15:2). The radioactivity of a portion corresponding to cholesterol oleate was measured using an imaging analyzer BAS-2500 (manufactured by Fujifilm Corp.). A sample non-supplemented with the test drug was similarly treated and assayed. The EC50 value of LCAT activation was calculated according to the expression given below relative to LCAT activity in the sample non-supplemented with the test drug.
[formula] • wherein X represents the logarithm of the concentration of the test drug; • Y represents the responsiveness (LCAT activity) of the test drug; • Top represents the maximum value (maximum plateau); • Bottom represents the minimum value (minimum plateau); and • EC50 represents the 50% effective concentration.

Structures are written as SMILES.

On to `O=C1Nc2[nH]nc(C3CCN(c4ccc(C(F)(F)F)cn4)CC3)c2C(O)(C(F)(F)F)C1O` (single isomer, unassigned; (+)) [Example 35, (+)-4,5-Dihydroxy-4-(trifluoromethyl)-3-{1-[5-(trifluoromethyl)pyridin-2-yl]piperidin-4-yl}-1,4,5,7-tetrahydro-6H-pyrazolo[3,4-b]pyridin-6-one], for which, in the assay on cynomolgus monkey, the change in vivo at 10 mg/kg came to 482%. In addition, the EC50 on LCAT worked out at 7 nM.

Regarding `O=C1Nc2[nH]nc(C3CCN(c4cnc(C(F)(F)F)nc4)CC3)c2[C@@H](C(F)(F)F)[C@H]1O` (single isomer, unassigned) [Example 21, (+)-cis-5-Hydroxy-4-(trifluoromethyl)-3-{1-[2-(trifluoromethyl)pyrimidin-5-yl]piperidin-4-yl}-1,4,5,7-tetrahydro-6H-pyrazolo[3,4-b]pyridin-6-one], the change in vivo at 10 mg/kg in the assay on cynomolgus monkey was 483%. For the same compound, on LCAT, the half-maximal effective concentration (EC50) was determined as 18 nM.

Take `N#Cc1cnc(N2CCC(c3n[nH]c4c3[C@@H](C(F)(F)F)[C@@H](O)C(=O)N4)CC2)cc1C(F)(F)F` (single isomer, unassigned) [Example 20, (+)-6-{4-[cis-5-Hydroxy-6-oxo-4-(trifluoromethyl)-4,5,6,7-tetrahydro-1H-pyrazolo[3,4-b]pyridin-3-yl]piperidin-1-yl}-4-(trifluoromethyl)pyridine-3-carbonitrile]: the change in vivo at 10 mg/kg with cynomolgus monkey amounted to 454%. The EC50 at LCAT is 51 nM.

On to `O=C1Nc2[nH]nc(C3CCN(c4ccc(Cl)cn4)CC3)c2[C@@H](C(F)(F)F)[C@H]1O` (single isomer, unassigned) [Example 22, (+)-cis-3-[1-(5-Chloropyridin-2-yl)piperidin-4-yl]-5-hydroxy-4-(trifluoromethyl)-1,4,5,7-tetrahydro-6H-pyrazolo[3,4-b]pyridin-6-one], for which the change in vivo at 10 mg/kg in the assay with cynomolgus monkey was found to be 581%. Besides, the EC50 at LCAT was determined as 32 nM.

For the compound `O=C1Nc2[nH]nc(C3CCN(c4ccc(-c5ccccc5)nn4)CC3)c2[C@@H](C(F)(F)F)[C@H]1O` (single isomer, unassigned) [Example 29, cis-5-hydroxy-3-[1-(6-phenylpyridazin-3-yl)piperidin-4-yl]-4-(trifluoromethyl)-1,4,5,7-tetrahydro-6H-pyrazolo[3,4-b]pyridin-6-one], the EC50 at LCAT was found to be 11 nM.

`N#Cc1cnc(N2CCC(c3n[nH]c4c3[C@@H](C(F)(F)F)[C@@H](O)C(=O)N4)CC2)cc1C(F)(F)F` (racemic) [Example 13, 6-{4-[cis-5-Hydroxy-6-oxo-4-(trifluoromethyl)-4,5,6,7-tetrahydro-1H-pyrazolo[3,4-b]pyridin-3-yl]piperidin-1-yl}-4-(trifluoromethyl)pyridine-3-carbonitrile]: the EC50 on LCAT worked out at 37 nM.

As to `N#Cc1cncc(N2CCC(c3n[nH]c4c3[C@@H](C(F)(F)F)[C@@H](O)C(=O)N4)CC2)c1` (single isomer, unassigned) [Example 31, (+)-5-{4-[cis-5-Hydroxy-6-oxo-4-(trifluoromethyl)-4,5,6,7-tetrahydro-1H-pyrazolo[3,4-b]pyridin-3-yl]piperidin-1-yl}pyridine-3-carbonitrile], the 50% effective concentration (EC50) at LCAT worked out at 34 nM.

As for `O=C1Nc2[nH]nc(C3CCN(c4ccc(OC(F)F)cn4)CC3)c2[C@@H](C(F)(F)F)[C@H]1O` (racemic) [Example 37, cis-3-{1-[5-(Difluoromethoxy)pyridin-2-yl]piperidin-4-yl}-5-hydroxy-4-(trifluoromethyl)-1,4,5,7-tetrahydro-6H-pyrazolo[3,4-b]pyridin-6-one], at LCAT, the EC50 amounted to 94 nM.

With `O=C1Nc2[nH]nc(C3CCN(c4cnc(C(F)(F)F)nc4)CC3)c2[C@@H](C(F)(F)F)[C@H]1O` (racemic) [Example 12, cis-5-Hydroxy-4-(trifluoromethyl)-3-{1-[2-(trifluoromethyl)pyrimidin-5-yl]piperidin-4-yl}-1,4,5,7-tetrahydro-6H-pyrazolo[3,4-b]pyridin-6-one], the concentration for a half-maximal effect (EC50) on LCAT is 35 nM.

With `O=C1Nc2[nH]nc(C3CCN(c4ccnc(C(F)(F)F)n4)CC3)c2[C@@H](C(F)(F)F)[C@H]1O` (single isomer, unassigned) [Example 25, (+)-cis-5-Hydroxy-4-(trifluoromethyl)-3-{1-[2-(trifluoromethyl)pyrimidin-4-yl]piperidin-4-yl}-1,4,5,7-tetrahydro-6H-pyrazolo[3,4-b]pyridin-6-one], at LCAT, the concentration for a half-maximal effect (EC50) stood at 100 nM.

`O=C1Nc2[nH]nc(C3CCN(c4ccc(C(F)(F)F)cn4)CC3)c2[C@@H](C(F)(F)F)[C@@H]1O` (racemic) [Example 1, trans-5-Hydroxy-4-(trifluoromethyl)-3-{1-[5-(trifluoromethyl)pyridin-2-yl]piperidin-4-yl}-1,4,5,7-tetrahydro-6H-pyrazolo[3,4-b]pyridin-6-one]: on LCAT, the EC50 was 880 nM.

As to `CC(C)Oc1ccc(N2CCC(c3n[nH]c4c3[C@@H](C(F)(F)F)[C@@H](O)C(=O)N4)CC2)nn1` (single isomer, unassigned) [Example 41, (+)-cis-5-Hydroxy-3-[1-(6-isopropoxypyridazin-3-yl)piperidin-4-yl]-4-(trifluoromethyl)-1,4,5,7-tetrahydro-6H-pyrazolo[3,4-b]pyridin-6-one], on LCAT, the half-maximal effective concentration (EC50) was 35 nM.

`CC(C)Oc1ccc(N2CCC(c3n[nH]c4c3[C@@H](C(F)(F)F)[C@@H](O)C(=O)N4)CC2)nc1` (single isomer, unassigned) [Example 36, (+)-cis-5-Hydroxy-3-[1-(5-isopropoxypyridin-2-yl)piperidin-4-yl]-4-(trifluoromethyl)-1,4,5,7-tetrahydro-6H-pyrazolo[3,4-b]pyridin-6-one]: the half-maximal effective concentration (EC50) at LCAT was found to be 41 nM.

As for `O=C1Nc2[nH]nc(C3CCN(c4cc(C(F)(F)F)ccn4)CC3)c2[C@@H](C(F)(F)F)[C@H]1O` (racemic) [Example 17, cis-5-Hydroxy-4-(trifluoromethyl)-3-{1-[4-(trifluoromethyl)pyridin-2-yl]piperidin-4-yl}-1,4,5,7-tetrahydro-6H-pyrazolo[3,4-b]pyridin-6-one], the concentration giving a half-maximal response (EC50) at LCAT came to 31 nM.

In the case of `O=C1Nc2[nH]nc(C3CCN(c4ncc(C(F)(F)F)cc4Cl)CC3)c2[C@@H](C(F)(F)F)[C@H]1O` (racemic) [Example 14, cis-3-{1-[3-Chloro-5-(trifluoromethyl)pyridin-2-yl]piperidin-4-yl}-5-hydroxy-4-(trifluoromethyl)-1,4,5,7-tetrahydro-6H-pyrazolo[3,4-b]pyridin-6-one], the EC50 on LCAT stood at 380 nM.

On to `CC(C)c1nc(N2CCC(c3n[nH]c4c3[C@@H](C(F)(F)F)[C@H](O)C(=O)N4)CC2)cc(C(F)(F)F)n1` (racemic) [Example 8, trans-5-Hydroxy-3-{1-[2-isopropyl-6-(trifluoromethyl)pyrimidin-4-yl]piperidin-4-yl}-4-(trifluoromethyl)-1,4,5,7-tetrahydro-6H-pyrazolo[3,4-b]pyridin-6-one], for which the 50% effective concentration (EC50) on LCAT stood at 630 nM.

Consider `CC(C)Oc1ccc(N2CCC(c3n[nH]c4c3[C@@H](C(F)(F)F)[C@@H](O)C(=O)N4)CC2)nc1` (racemic) [Example 5, cis-5-Hydroxy-3-[1-(5-isopropoxypyridin-2-yl)piperidin-4-yl]-4-(trifluoromethyl)-1,4,5,7-tetrahydro-6H-pyrazolo[3,4-b]pyridin-6-one], for which, at LCAT, the EC50 worked out at 160 nM.
